# Measured values as given in US20240262835A1, “PRMT5 INHIBITING COMPOUNDS AND USES THEREOF” (ANTENGENE DISCOVERY LIMITED, priority 2023, published 2024).
# Experiments:
# [1] = tested on: HCT116 homozygous MTAP knockout cells; assay: HCT116 cell proliferation assay (CTG), MTAP knockout cells; type: cell-based, human; settings: Cell Titer-Glo
# Experimental: (§1) Control samples were analyzed in parallel.
# (§2) On Day 0, 150 HCT116 parental or HCT116 homozygous MTAP knockout cells were seeded in 96-well plates in McCoy's 5A medium containing 10% fetal bovine serum and pen/strep. And the cells were incubated overnight at 37° C. and 5% CO2.
# (§3) On Day 1, cells were treated with 9-point serial dilution of compound, using a top concentration of 50 μM, 1:5 serial dilution steps and, a DMSO-only control. And cells were incubated for 6 days.
# (§4) On Day 7, cell viability was measured using a CTG assay Kit (Cell Titer-Glo; Promega, catalog no.: G7573) in accordance with the manufacturer's instructions. Assays plates were read on a EnVision™ Multilabel Reader using the Ultra-Sensitive luminescence model. The data were analyzed by GraphPad Prism 5.0 software, and the dose-effect curve was obtained by fitting the data using nonlinear S-curve regression, from which the IC50 value was calculated.
# PRMT5/MEP50 = PRMT5/MEP50 (Homo sapiens (Human), UniProt O14744); assay: MTase-Glo methyl transferase assay (PRMT5 inhibition); type: biochemical; settings: 50 nM PRMT5/MEP50, 25 μM SAM, 5 μM Histone H4 peptide (1-21), read-out: IC50 for PRMT5 inhibiting
# PRMT5/MEP50, sequence (O14744 whole entry): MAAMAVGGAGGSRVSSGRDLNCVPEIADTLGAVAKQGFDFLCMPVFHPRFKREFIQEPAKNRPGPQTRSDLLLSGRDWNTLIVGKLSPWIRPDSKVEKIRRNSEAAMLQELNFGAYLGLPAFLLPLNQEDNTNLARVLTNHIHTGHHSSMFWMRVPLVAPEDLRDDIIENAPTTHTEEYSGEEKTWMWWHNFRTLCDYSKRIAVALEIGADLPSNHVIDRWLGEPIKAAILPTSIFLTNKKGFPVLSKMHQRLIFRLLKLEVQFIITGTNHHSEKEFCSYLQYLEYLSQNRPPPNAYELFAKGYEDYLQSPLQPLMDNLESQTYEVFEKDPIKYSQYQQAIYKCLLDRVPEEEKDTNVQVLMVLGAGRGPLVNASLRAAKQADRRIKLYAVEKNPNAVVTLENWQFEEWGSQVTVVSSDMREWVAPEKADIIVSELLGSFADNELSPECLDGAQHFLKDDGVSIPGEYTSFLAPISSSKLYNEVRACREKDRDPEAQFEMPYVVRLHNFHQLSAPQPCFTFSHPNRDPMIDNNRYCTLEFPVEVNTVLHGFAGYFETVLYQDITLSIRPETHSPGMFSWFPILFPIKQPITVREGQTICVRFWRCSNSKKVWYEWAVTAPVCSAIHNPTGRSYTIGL
# PRMT5/MEP50, sequence (Q9BQA1 whole entry partner): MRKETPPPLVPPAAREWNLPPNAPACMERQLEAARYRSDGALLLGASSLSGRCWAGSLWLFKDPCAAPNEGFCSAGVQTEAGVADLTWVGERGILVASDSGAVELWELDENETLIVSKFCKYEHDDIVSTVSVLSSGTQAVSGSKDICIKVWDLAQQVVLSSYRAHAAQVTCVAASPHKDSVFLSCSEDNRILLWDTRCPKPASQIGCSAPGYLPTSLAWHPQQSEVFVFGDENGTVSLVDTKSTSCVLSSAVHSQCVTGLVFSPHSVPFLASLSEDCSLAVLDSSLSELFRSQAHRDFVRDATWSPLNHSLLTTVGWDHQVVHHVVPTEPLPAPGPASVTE
# Experimental: The PRMT5 inhibitory activity of test compounds was determined using the MTase-Glo™ assay (Promega), which monitors the product (S-adenosyl homocysteine or SAH) of methyltransferase reactions. The PRMT5 MTase-Glo assays were conducted in a 384-well white ProxiPlate (PerkinElmer, catalog no.: 6008280) in a total volume of 12 μL. The PRMT5 enzymatic reaction (in 4 μL) contained 50 nM PRMT5/MEP50 (Reaction Biology Corp, catalog no.: HMT-22-148), 25 μM S-adenosyl methionine (SAM, Promega), 5 μM Histone H4 peptide (1-21) (BPS Bioscience, catalog no.: 52018-2) and five-fold serially diluted compounds in a reaction buffer of 50 mM Tris (pH 8.0), 50 mM NaCl, 0.01% Tween 20, 0.01% BSA, and 1 mM DTT. The test compounds were pre-incubated with PRMT5/MEP50 and Histone H4 peptide for 20 minutes at room temperature before the addition of SAM to initiate the PRMT5 reaction. The reaction was allowed to proceed for 1 hour at 37° C. and was terminated by 2 μL of 3× MTase-Glo™ Reagent (Promega) and 150 μM EPZ015666 (Selleck, catalog no.: 1616391-65-1). After a 30-minute incubation at room temperature, 6 μL of MTase-Glo™ Detection Solution (Promega) was added and the plate was incubated at room temperature for an additional 30 minutes. The light signal corresponding to the amount of SAH produced by the PRMT5 reaction was subsequently measured using an Envision multimode reader (PerkinElmer). IC50 and Ki values were obtained by analyzing dose-response curves using GraphPad Prism.
# [2] = tested on: HCT116 parental (wild type) cells; assay: HCT116 cell proliferation assay (CTG), parental cells; type: cell-based, human; settings: Cell Titer-Glo
# Experimental: as §1, §2, §3, §4
# [3] = In vivo pharmacokinetics assay in mice via IV and PO; design: species or system ICR mice; settings: IV 1.0 mg/kg
# Experimental: Pharmacokinetics assay for test compounds was performed in mice via IV and PO.
# Test compound solution was prepared on the day of administration.
# Solvent: IV+PO: 5% DMSO+10% Soultol+85% H2O or saline
# Species: ICR mice; SPF level.
# Source: Beijing Vital River Laboratory Animal Technology Co., Ltd.
# Animal selection: Males. No random grouping
# Weighed before dosing, calculated dosage according to body weight. For Groups 1-3, the drug was administered intravenously or intragastrically. For Group 4, the drug administered intragastrically.
# For Groups 1-3, at 0.083 h, 0.25 h, 0.5 h, 1 h, 2 h, 4 h, 6 h, 8 h, 24 h, after administration. For Group 4, at 2 h and 4 h after administration.
# Blood was collected through the cheeks. For each sample, about 0.05 mL of blood was collected and was added heparin sodium or EDTA-2K as anticoagulant, and was placed on wet ice.
# The blood samples were collected and placed on ice and was centrifuged within 1 hour (centrifugation: 6000 g, 3 minutes, 2-8° C.) to separate plasma. Plasma samples were stored in a −80° C. refrigerator prior to analysis.
# The pharmacokinetic parameters were calculated using Phoenix WinNonlin8.2.0 based on the blood concentration data at different time points, and AUC0-t, AUC0-∞, MRT0-∞, Cmax, Tmax, and T1/2 and mean values and standard deviations thereof were provided.
# [4] = human, microsomes
# [5] = target: hERG potassium ion channel (Homo sapiens (Human), UniProt Q12809); assay: hERG potassium ion channel inhibition assay (automated patch-clamp, CHO-hERG cells); type: cell-based; settings: Qpatch, highest test concentration 40.00 μM
# hERG potassium ion channel, sequence (Q12809 whole entry): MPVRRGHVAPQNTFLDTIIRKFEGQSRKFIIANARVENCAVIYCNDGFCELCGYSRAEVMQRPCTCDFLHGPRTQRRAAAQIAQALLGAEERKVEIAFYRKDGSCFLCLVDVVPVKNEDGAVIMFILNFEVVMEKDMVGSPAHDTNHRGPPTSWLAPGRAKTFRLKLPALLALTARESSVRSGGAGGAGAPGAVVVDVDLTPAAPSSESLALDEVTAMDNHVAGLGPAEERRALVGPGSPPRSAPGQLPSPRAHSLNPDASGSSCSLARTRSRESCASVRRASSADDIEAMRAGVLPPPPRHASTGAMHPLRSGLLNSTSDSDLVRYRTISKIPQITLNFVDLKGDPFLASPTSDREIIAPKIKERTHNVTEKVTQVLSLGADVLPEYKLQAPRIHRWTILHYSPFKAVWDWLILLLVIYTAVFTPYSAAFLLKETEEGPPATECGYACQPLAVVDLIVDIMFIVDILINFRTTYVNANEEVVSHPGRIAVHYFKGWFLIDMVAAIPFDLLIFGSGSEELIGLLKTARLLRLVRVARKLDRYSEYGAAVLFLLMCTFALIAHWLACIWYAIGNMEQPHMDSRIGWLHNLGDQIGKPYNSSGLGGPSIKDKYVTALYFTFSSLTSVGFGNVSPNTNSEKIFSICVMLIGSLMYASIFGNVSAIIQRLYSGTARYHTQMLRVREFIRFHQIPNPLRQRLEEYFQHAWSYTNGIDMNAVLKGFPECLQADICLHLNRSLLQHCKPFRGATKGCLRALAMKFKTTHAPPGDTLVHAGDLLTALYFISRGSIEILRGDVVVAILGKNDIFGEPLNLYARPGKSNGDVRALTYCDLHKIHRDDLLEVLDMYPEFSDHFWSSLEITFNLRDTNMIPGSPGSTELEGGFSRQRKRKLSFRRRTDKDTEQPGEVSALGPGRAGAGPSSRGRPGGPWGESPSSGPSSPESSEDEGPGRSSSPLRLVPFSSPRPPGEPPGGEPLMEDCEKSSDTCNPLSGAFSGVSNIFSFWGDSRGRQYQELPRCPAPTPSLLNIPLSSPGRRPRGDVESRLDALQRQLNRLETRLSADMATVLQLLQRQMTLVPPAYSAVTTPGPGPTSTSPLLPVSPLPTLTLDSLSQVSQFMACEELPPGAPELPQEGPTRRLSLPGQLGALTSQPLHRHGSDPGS
# Experimental: Drug-hERG interaction was measured by automated patch-clamp methods, with cisapride as positive control.
# 1.1 CHO-hERG cells were cultured in 175 cm^2 culture bottle. After the cell density grew to 60-80%, the culture medium was removed, washed with 7 mL of phosphate buffered saline (PBS), and then digested with 3 mL Detachin.
# 1.2 After the digestion was complete, 7 mL culture solution was added for neutralization, and then centrifuged, the clear solution was sucked, and 5 mL culture solution was added for re-suspension to ensure the cell density was 2˜5×10^6/mL.
# The process of single-cell high-impedance sealing and whole-cell pattern formation was all automatically completed by Qpatch instrument. After obtaining whole-cell recording mode, the cell was pinching at −80 millivolts. Before giving a 5-second +40 millivolt depolarization stimulus, a 50-millisecond pre-voltage of −50 millivolts was given first, and then repolarized to −50 millivolts for 5 seconds. Go back to −80 millivolts. This voltage stimulation was applied every 15 seconds, recorded for 2 minutes, then extracellular fluid was given and recorded for 5 minutes, and then the administration process began. The concentration of test compound was given from the lowest test concentration for 2.5 minutes per test concentration. After continuous administration of all concentrations, the positive control 3 μM cisapride was given. At least 2 cells were tested for each concentration (n≥2).
# 4.1 The compound mother liquor was diluted with DMSO, and 10 μL compound stock solution was added to 20 μL DMSO solution, which was continuously 3-fold diluted to 6 DMSO-concentrations.
# 4.2 4 μL of test compounds in 6 DMSO-concentrations were added to 396 μL extracellular solution and were 100-fold diluted to 6 intermediate concentrations. Then, 80 μL of test compounds in 6 intermediate concentrations were added to 320 μL extracellular solution and were 5-fold diluted to the final concentration to be tested.
# 4.3 The highest test concentration was 40.00 μM, and six test concentrations were 40.00, 13.33, 4.44, 1.48, 0.49, 0.16 μM, respectively.
# 4.5 Entire dilution process for test compound preparation was performed by Bravo instrument.
# The experimental data were analyzed by GraphPad Prism 5.0 software.
# [6] = Liver microsome metabolic stability (LMS) assay, mouse; settings: mouse liver microsome 0.5 mg protein/mL, 1 μM, NADPH
# [7] = Homo sapiens, HCT-116, 6 days treatment
"IC50 [1, 7] [nM]",SMILES,IC50 (PRMT5/MEP50) [nM],"IC50 [2, 7] [nM]",also measured
377,CN(C(=O)c1cc2c(cn1)nc(N)c1cncn12)C1COc2nc(C(F)(F)F)ccc21 (centres unmarked) [Compound 29],37,21900,–
73,Cn1ncc(-c2ccc3c(c2)nc(N)c2cncn23)c1-c1c(F)cc2ccccc2c1C#N [Compound 1],45,4360,–
–,CN(C(=O)c1cc2c(cn1)nc(N)c1cncn12)C1COc2cc(C(F)(F)F)ccc21 (centres unmarked) [Compound 22],1150,–,–
156,C[C@H](c1ncccn1)N(Cc1ccc(C(F)(F)F)cn1)C(=O)c1ccc2nc(N)c3cncn3c2c1 [Compound 3],24,16000,–
4020,CN(C(=O)c1ccc2nc(N)c3cncn3c2c1)C1COc2cc(C(F)(F)F)cnc21 (centres unmarked) [Compound 30],89,> 50000,–
181,CN(C(=O)c1cnc2nc(N)c3cncn3c2c1)[C@@H]1COc2cc(C(F)(F)F)ccc21 [Compound 13],40,4570,–
–,CN(C(=O)c1cc2c(cn1)nc(N)c1cncn12)[C@@H]1CC(F)(F)c2cc(C(F)(F)F)ccc21 [Compound 26],34,–,"IC50 ([1]; 6 days treatment): 64 nM; IC50 ([2]; 6 days treatment): 6590 nM; Cl [3]: 10.5 mL/min/kg; T1/2 of LMS, H [4]: 2.32 h; IC50 [5]: 13600 nM; T1/2 of LMS, M [6]: 1.98 h"
–,CN(C(=O)c1ccc2nc(N)c3cncn3c2c1)C1COc2cc(C(F)(F)F)ccc21 (centres unmarked) [Compound 15],16,–,IC50 ([1]; 6 days treatment): 37 nM; IC50 ([2]; 6 days treatment): 5340 nM; IC50 [5]: 5580 nM
–,CN(C(=O)c1cc2c(cn1)nc(N)c1cncn12)C1COc2cc(C(F)(F)F)ccc21 (centres unmarked) [Compound 20],455,–,–
138,C[C@H](c1ncccn1)N(Cc1ccc(C(F)(F)F)cn1)C(=O)c1ccc2nc(N)n3cncc3c2c1 [Compound 5],26,1580,–
286,CN(C(=O)c1ccc2nc(N)c3cncn3c2c1)C1COc2cc(C(F)(F)F)ncc21 (centres unmarked) [Compound 32],25,8090,–
–,CN(C(=O)c1ccc2nc(N)c3cncn3c2c1)C1COc2cc(C(F)(F)F)ccc21 (centres unmarked) [Compound 18],420,–,–
12,C[C@H]1CC[C@H](c2ccc3c(c2)CCC(=O)N3)N(C(=O)c2ccc3nc(N)c4cncn4c3c2)C1 [Compound 4],28,105,–
483,CN(C(=O)c1ccc2nc(N)c3cncn3c2c1)C1COc2nc(C(F)(F)F)ccc21 (centres unmarked) [Compound 28],37,> 50000,–
158,Cn1ncc(-c2ccc3c(c2)nc(N)c2cncn23)c1-c1c(F)c(Cl)cc(OC2CC2)c1C#N [Compound 2],45,5720,–
–,CN(C(=O)c1ccc2nc(N)c3cncn3c2c1)C1COc2cc(C(F)(F)F)ccc21 (centres unmarked) [Compound 16],231,–,–
33,C[C@H](c1ncccn1)N(Cc1ccc(C(F)(F)F)cn1)C(=O)c1cc2c(cn1)nc(N)c1cncn12 [Compound 10],54,495,–
17,C[C@H](c1ncccn1)N(Cc1ccc(C(F)(F)F)cn1)C(=O)c1cc2c(cc1F)nc(N)c1cncn12 [Compound 6],36,230,–
234,[2H]C([2H])([2H])N(C(=O)c1ccc2nc(N)c3cncn3c2c1)C1COc2cc(OC(F)F)ccc21 (centres unmarked) [Compound 37],29,13800,–
–,CN(C(=O)c1cc2c(cn1)nc(N)c1cncn12)C1CC(F)(F)c2cc(C(F)(F)F)ccc21 (centres unmarked) [Compound 27],1690,–,–
–,CN(C(=O)c1cc2c(cn1)nc(N)c1cncn12)C1CC(F)(F)c2cc(C(F)(F)F)ccc21 (centres unmarked) [Compound 25],167,–,–
40,CN(C(=O)c1ccc2nc(N)c3cncn3c2c1)C1COCc2cc(C(F)(F)F)ccc21 (centres unmarked) [Compound 23],31,5350,–

SMILES,"IC50 [1, 7] [nM]",IC50 (PRMT5/MEP50) [nM],"IC50 [2, 7] [nM]",also measured
CN(C(=O)c1cc2c(cn1)nc(N)c1cncn12)C1COc2cc(C(F)(F)F)ncc21 (centres unmarked) [Compound 33],980,51,18000,–
[2H]C([2H])([2H])N(C(=O)c1cc2c(cn1)nc(N)c1cncn12)C1COc2cc(C(F)(F)F)c(F)cc21 (centres unmarked) [Compound 35],70,87,3210,–
[2H]C([2H])([2H])N(C(=O)c1cc2c(cn1)nc(N)c1cncn12)C1COc2cc(C(F)(F)F)cc(F)c21 (centres unmarked) [Compound 36],110,53,9620,–
CN(C(=O)c1ccc2nc(N)c3cncn3c2c1)C1COc2cc(C(F)(F)F)ccc21 (centres unmarked) [Compound 11],64,51,7680,–
CN(C(=O)c1cc2c(cn1)nc(N)c1cncn12)C1COc2cc(C(F)(F)F)cnc21 (centres unmarked) [Compound 31],1500,96,9580,–
[2H]C([2H])([2H])N(C(=O)c1cc2c(cn1)nc(N)c1cncn12)C1COc2c1ccc(C(F)(F)F)c2F (centres unmarked) [Compound 34],364,70,14000,–
